# Where two headings read alike, the source gives them in different places.
# How the values were obtained:
# AHR [1] = molecular target: T1, AHR (Homo sapiens, UniProt P35869); test: In vitro assay 1: antagonism in human cell line (AHR transactivation, firefly luciferase reporter, kynurenic acid prestimulated); type: cell-based; details: AHR Antagonism Human IC50 [M]
# T1 construct: U87 MG glioblastoma cells (ATCC #HTB-14) endogenously expressing AHR; endogenous in cells; host or cells: U87 MG glioblastoma cells (ATCC #HTB-14)
# T1 sequence (P35869 11-848): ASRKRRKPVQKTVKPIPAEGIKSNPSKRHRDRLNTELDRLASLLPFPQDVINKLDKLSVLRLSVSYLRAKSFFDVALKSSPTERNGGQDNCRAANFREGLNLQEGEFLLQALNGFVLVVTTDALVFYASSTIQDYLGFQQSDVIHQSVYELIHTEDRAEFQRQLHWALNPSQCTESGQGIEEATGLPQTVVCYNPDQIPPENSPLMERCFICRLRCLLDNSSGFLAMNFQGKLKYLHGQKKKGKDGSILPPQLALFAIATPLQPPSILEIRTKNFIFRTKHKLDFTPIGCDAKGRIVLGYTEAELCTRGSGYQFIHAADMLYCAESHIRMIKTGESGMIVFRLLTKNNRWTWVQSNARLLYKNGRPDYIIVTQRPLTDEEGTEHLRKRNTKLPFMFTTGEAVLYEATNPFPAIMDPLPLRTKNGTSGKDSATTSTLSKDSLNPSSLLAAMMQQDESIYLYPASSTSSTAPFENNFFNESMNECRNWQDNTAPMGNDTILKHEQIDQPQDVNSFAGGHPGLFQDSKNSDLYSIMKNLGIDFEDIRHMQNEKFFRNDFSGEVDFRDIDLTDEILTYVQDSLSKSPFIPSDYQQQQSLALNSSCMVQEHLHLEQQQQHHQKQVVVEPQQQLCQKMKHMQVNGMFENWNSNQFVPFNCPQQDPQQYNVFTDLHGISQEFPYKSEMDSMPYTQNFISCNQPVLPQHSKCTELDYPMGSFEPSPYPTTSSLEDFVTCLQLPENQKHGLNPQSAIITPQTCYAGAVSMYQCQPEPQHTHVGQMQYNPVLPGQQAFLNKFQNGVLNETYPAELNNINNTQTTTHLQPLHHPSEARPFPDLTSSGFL
# In short: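 Antagonism measured as loss of kynurenic acid-driven firefly luciferase from DRE reporter in stably transfected U87 MG cells; constitutive Renilla signal monitors cytotoxicity. Positive/negative control normalization, staurosporine 5 μM with 150 μM kynurenic acid as inhibition control; replicates given as mean or median.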
# AHR [2] = molecular target: T2, AHR (Mus musculus, UniProt P30561); test: In vitro assay 3: antagonism in mouse cell line (AHR transactivation, firefly luciferase reporter, kynurenic acid prestimulated); type: cell-based; details: 200 μM kynurenic acid, 20 hours, read-out: AHR Antagonism Mouse IC50
# T2 sequence (P30561 1-848 P471L/N533S/M589L): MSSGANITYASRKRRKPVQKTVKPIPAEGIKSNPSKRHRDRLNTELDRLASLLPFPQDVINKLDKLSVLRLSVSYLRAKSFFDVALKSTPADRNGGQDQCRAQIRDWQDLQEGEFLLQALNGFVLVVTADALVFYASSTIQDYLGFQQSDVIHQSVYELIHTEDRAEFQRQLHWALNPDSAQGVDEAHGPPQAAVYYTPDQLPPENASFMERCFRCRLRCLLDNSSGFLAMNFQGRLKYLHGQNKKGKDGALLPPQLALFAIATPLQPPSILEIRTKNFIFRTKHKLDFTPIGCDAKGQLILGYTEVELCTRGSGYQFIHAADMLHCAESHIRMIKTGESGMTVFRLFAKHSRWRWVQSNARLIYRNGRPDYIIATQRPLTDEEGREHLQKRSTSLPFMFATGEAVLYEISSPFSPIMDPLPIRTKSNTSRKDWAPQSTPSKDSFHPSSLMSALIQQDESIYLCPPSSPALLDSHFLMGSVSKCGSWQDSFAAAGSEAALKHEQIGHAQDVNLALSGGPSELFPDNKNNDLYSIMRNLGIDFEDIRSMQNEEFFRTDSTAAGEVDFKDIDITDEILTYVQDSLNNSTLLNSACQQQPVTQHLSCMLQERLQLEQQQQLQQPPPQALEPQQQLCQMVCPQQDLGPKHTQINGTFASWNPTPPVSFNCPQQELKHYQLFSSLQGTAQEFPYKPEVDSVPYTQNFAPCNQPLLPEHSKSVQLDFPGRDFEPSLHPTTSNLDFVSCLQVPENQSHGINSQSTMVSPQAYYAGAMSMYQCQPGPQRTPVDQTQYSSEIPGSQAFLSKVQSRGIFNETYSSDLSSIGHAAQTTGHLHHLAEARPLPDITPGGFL
# In short: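 Antagonism read as reduced firefly luciferase signal (SteadyGlo) from a stably transfected AHR/DRE reporter in a mouse line prestimulated with kynurenic acid. Data normalized to controls, the full-inhibition control being cells without kynurenic acid; multiple determinations given as average or median values.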
# [3] = Hepa 1c1c7 cells, firefly luciferase reporter
Compound,IC50 (AHR [1]) [M],IC50 (AHR [2]; mouse Hepa 1c1c7 cells) [µM],IC50 (AHR [1]; firefly luciferase reporter) [M],IC50 (AHR [2]; [3]) [µM]
"CC[C@@H](Nc1nc2ccccc2c2nc(-c3cc(C(F)(F)F)cc(C(F)(F)F)c3)nn12)C(N)=O [Example 361, (2R)-2-({2-[3,5-bis(trifluoromethyl)phenyl][1,2,4]triazolo[1,5-c]quinazolin-5-yl}amino)butanamide]",> 2e-05,0.0668,,
"COc1cccc(-c2nc3c4ccccc4nc(N[C@@H]4CCCCNC4=O)n3n2)c1 [Example 75, (3R)-3-{[2-(3-methoxyphenyl)[1,2,4]triazolo[1,5-c]quinazolin-5-yl]amino}azepan-2-one]",2.57e-09,0.000359,,
"CCCNC(=O)[C@@H](CC)Nc1nc2c(Br)cccc2c2nc(-c3ccc(Cl)cc3OC(F)F)nn12 [Example 797, (2R)-2-({7-bromo-2-[4-chloro-2-(difluoromethoxy)phenyl][1,2,4]triazolo[1,5-c]quinazolin-5-yl}amino)-N-propylbutanamide]",,,1.58e-09,0.000963
"Cn1cc(-c2nc3c4cccc(Br)c4nc(N[C@H]4CNCCNC4=O)n3n2)cn1 [Example 983, (6S)-6-{[7-bromo-2-(1-methyl-1H-pyrazol-4-yl)[1,2,4]triazolo[1,5-c]quinazolin-5-yl]amino}-1,4-diazepan-5-one]",,,8.18e-08,0.189
"O=C1NCCNC[C@H]1Nc1nc2ccccc2c2nc(-c3ccc(Br)o3)nn12 [Example 412, (6R)-6-{[2-(5-bromofuran-2-yl)[1,2,4]triazolo[1,5-c]quinazolin-5-yl]amino}-1,4-diazepan-5-one]",8.37e-08,0.236,,
"CC[C@@H](Nc1nc2ccccc2c2nc(-c3cscc3OC)nn12)C(N)=O [Example 338, (2R)-2-{[2-(4-methoxythiophen-3-yl)[1,2,4]triazolo[1,5-c]quinazolin-5-yl]amino}butanamide]",1.91e-07,0.0539,,
"CCCCNC(=O)[C@@H](C)Nc1nc2c(Br)cccc2c2nc(-c3cnn(C)c3)nn12 [Example 794, N^2-[7-bromo-2-(1-methyl-1H-pyrazol-4-yl)[1,2,4]triazolo[1,5-c]quinazolin-5-yl]-N-butyl-D-alaninamide]",,,1.76e-08,0.0212
"Cc1cc(-c2nc3c4ccccc4nc(N[C@@H]4CCNC4=O)n3n2)cs1 [Example 356, (3R)-3-{[2-(5-methylthiophen-3-yl)[1,2,4]triazolo[1,5-c]quinazolin-5-yl]amino}pyrrolidin-2-one]",2.71e-08,0.0304,,
"Cn1cc(-c2nc3c4cccc(Br)c4nc(N[C@H]4C[S+]([O-])CCNC4=O)n3n2)cn1 (single isomer, unassigned) [Example 849]",,,4.87e-07,0.513
"CC(C)n1cc(-c2nc3c4cccc(Br)c4nc(N[C@H]4CNCCNC4=O)n3n2)cn1 [Example 984, (6S)-6-({7-bromo-2-[1-(propan-2-yl)-1H-pyrazol-4-yl][1,2,4]triazolo[1,5-c]quinazolin-5-yl}amino)-1,4-diazepan-5-one]",,,3.84e-08,0.0412
"CN1CCNC(=O)[C@H](Nc2nc3c(Br)cccc3c3nc(-c4cnn(C)c4)nn23)C1 [Example 994, (6R)-6-{[7-bromo-2-(1-methyl-1H-pyrazol-4-yl)[1,2,4]triazolo[1,5-c]quinazolin-5-yl]amino}-1-methyl-1,4-diazepan-5-one]",,,2.32e-08,0.0256
"COc1ccc(-c2nc3c4ccccc4nc(N[C@@H]4CCCCNC4=O)n3n2)c(OC(F)(F)F)c1 [Example 508, (3R)-3-({2-[4-methoxy-2-(trifluoromethoxy)phenyl][1,2,4]triazolo[1,5-c]quinazolin-5-yl}amino)azepan-2-one]",3.53e-09,0.00421,,
"O=C1NCCCC[C@H]1Nc1nc2ccccc2c2nc(-c3cc(C(F)(F)F)cc(C(F)(F)F)c3)nn12 [Example 359, (3R)-3-({2-[3,5-Bis(trifluoromethyl)phenyl][1,2,4]triazolo[1,5-c]quinazolin-5-yl}amino)azepan-2-one]",> 2e-05,0.0934,,
"O=C1NCCCC[C@H]1Nc1nc2c(Br)cccc2c2nc(-c3ccc(Cl)cc3OC(F)(F)F)nn12 [Example 571, (3R)-3-({7-bromo-2-[4-chloro-2-(trifluoromethoxy)phenyl][1,2,4]triazolo[1,5-c]quinazolin-5-yl}amino)azepan-2-one]",> 2e-05,0.0101,,

# The next lines start with the values.
IC50 (AHR [1]) [M],IC50 (AHR [2]; mouse Hepa 1c1c7 cells) [µM],IC50 (AHR [1]; firefly luciferase reporter) [M],IC50 (AHR [2]; [3]) [µM],Compound
5e-09,0.00107,,,"CC[C@H](Nc1nc2c(Br)cccc2c2nc(-c3ccc(Cl)cc3OC(F)(F)F)nn12)C(N)=O [Example 574, (2S)-2-({7-bromo-2-[4-chloro-2-(trifluoromethoxy)phenyl][1,2,4]triazolo[1,5-c]quinazolin-5-yl}amino)butanamide]"
,,1.9e-08,0.266,"COCc1cccc2c1nc(N[C@@H]1CCCCNC1=O)n1nc(-c3cnn(C)c3)nc21 [Example 1004, (3R)-3-{[7-(methoxymethyl)-2-(1-methyl-1H-pyrazol-4-yl)[1,2,4]triazolo[1,5-c]quinazolin-5-yl]amino}azepan-2-one]"
2.78e-07,0.16,,,"COc1ccc(-c2nc3c4cccc(OCCC(F)(F)F)c4nc(N[C@@H]4CCCCNC4=O)n3n2)cc1 [Example 670, (3R)-3-{[2-(4-methoxyphenyl)-7-(3,3,3-trifluoropropoxy)[1,2,4]triazolo[1,5-c]quinazolin-5-yl]amino}azepan-2-one]"
1.93e-08,0.00812,,,"N#Cc1ccc(-c2nc3c4ccccc4nc(N[C@@H]4CNCCNC4=O)n3n2)cc1 [Example 718, 4-(5-{[(6R)-5-oxo-1,4-diazepan-6-yl]amino}[1,2,4]triazolo[1,5-c]quinazolin-2-yl)benzonitrile]"
,,8.11e-08,0.138,"COc1ccc(-c2nc3c4cccc(OCC(C)(C)O)c4nc(N[C@@H]4CCCCNC4=O)n3n2)cc1 [Example 997, (3R)-3-{[7-(2-hydroxy-2-methylpropoxy)-2-(4-methoxyphenyl)[1,2,4]triazolo[1,5-c]quinazolin-5-yl]amino}azepan-2-one]"
7.93e-10,0.000398,,,"N#Cc1ccc(-c2nc3c4ccccc4nc(N[C@@H]4CCCCNC4=O)n3n2)cc1 [Example 387, 4-(5-{[(3R)-2-oxoazepan-3-yl]amino}[1,2,4]triazolo[1,5-c]quinazolin-2-yl)benzonitrile]"
9.71e-10,0.00249,,,"Cn1cc(-c2nc3c4cccc(Br)c4nc(N[C@@H]4CCCCNC4=O)n3n2)cn1 [Example 212, (3R)-3-{[7-bromo-2-(1-methyl-1H-pyrazol-4-yl)[1,2,4]triazolo[1,5-c]quinazolin-5-yl]amino}azepan-2-one]"
> 2e-05,> 20,,,"CC[C@H](Nc1nc2ccccc2c2nc(-c3cnccn3)nn12)C(N)=O [Example 688, (2S)-2-{[2-(pyrazin-2-yl)[1,2,4]triazolo[1,5-c]quinazolin-5-yl]amino}butanamide]"

# Source: patent publication US20230113037A1 (Bayer Aktiengesellschaft, priority 2019, published 2023)
